Target: Active Human ERK2 (hERK2) (Homo sapiens (Human), UniProt P28482)
Experiment: Active Human ERK2 (hERK2) Activity Assay (IMAP-FP)
Type: biochemical
Conditions: phosphorylated active hERK2, 30 μM ATP; average; read-out: ERK 2 Human average IC50
Description: Assays Active Human ERK2 (hERK2) Activity Assay:
Activated ERK2 activity was determined in an IMAP-FP assay (Molecular Devices). […] The final reaction in each well of 25 μL consists of 0.5 nM hERK2, 900 nM unlabeled peptide, 80 nM labeled-peptide, and 30 μM ATP. Phosphorylation reactions were allowed to proceed for 60 minutes and were immediately quenched by the addition of […] IMAP detection beads (1:1000 dilutions) in IMAP binding buffer (Molecular Devices) with 24 mM NaCl. Plates were read on EnVision reader after 60 minutes binding equilibration using Fluorescence Polarization protocol (Perkin Elmer).

Chain of Active Human ERK2 (hERK2) (P28482 whole entry): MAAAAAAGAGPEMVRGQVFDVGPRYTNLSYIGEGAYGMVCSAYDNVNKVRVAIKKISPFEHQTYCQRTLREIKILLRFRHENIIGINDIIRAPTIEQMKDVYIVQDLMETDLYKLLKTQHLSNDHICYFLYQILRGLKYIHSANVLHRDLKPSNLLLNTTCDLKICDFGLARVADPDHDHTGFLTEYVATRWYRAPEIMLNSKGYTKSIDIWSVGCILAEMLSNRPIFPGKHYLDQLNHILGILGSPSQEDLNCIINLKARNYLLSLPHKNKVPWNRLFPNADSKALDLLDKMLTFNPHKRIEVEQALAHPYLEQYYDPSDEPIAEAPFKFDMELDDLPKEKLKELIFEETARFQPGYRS

| IC50 [nM] | SMILES |
| --- | --- |
| 0.184 | COC[C@@H](NC(=O)Nc1ncc2c(-c3ccncc3)n[nH]c2c1F)c1ccccc1 [Example 547] |
| 23.5 | Cc1cc(-c2n[nH]c3cc(NC(=O)N[C@H](COCC4CC4)c4ccccc4)ncc23)no1 [Example 699] |
| 2.14 | Cc1cc(-c2n[nH]c3cc(NC(=O)NCc4nccs4)ncc23)ccn1 [Example 436] |
| 0.958 | Cc1cc(-c2n[nH]c3cc(NC(=O)NC4CNc5ccccc5C4)ncc23)ccn1 (stereo not shown) [Example 501] |
| 155 | Cc1cccc(CNC(=O)Nc2cc3[nH]nc(C(F)F)c3cn2)n1 [Example 695] |
| 946 | C[C@@H](NC(=O)Nc1ncc2c(C#N)n[nH]c2c1F)c1ccccc1 [Example 540] |
| 0.805 | Cc1cc(-c2n[nH]c3cc(NC(=O)NC4CCc5[nH]ncc5C4)ncc23)ccn1 (stereo not shown) [Example 506] |
| 373 | Cc1cc(-c2n[nH]c3cc(NC(=O)NC4CCCC(Oc5ccc(Cl)c(F)c5)C4)ncc23)ccn1 (stereo not shown) [Example 646] |
| 2240 | Cc1cc(-c2n[nH]c3cc(NC(=O)N[C@H](C(=O)O)C(C)C)ncc23)ccn1 [Example 452] |
| 10.2 | CCn1cc(CNC(=O)Nc2cc3[nH]nc(-c4ccnc(C)c4)c3cn2)cn1 [Example 471] |
| 66.6 | C[C@@H](NC(=O)Nc1cc2[nH]nc(C#N)c2cn1)c1ccccc1 [Example 537, (R)-1-(3-cyano-1H-pyrazolo[4,3-c]pyridin-6-yl)-3-(1-phenylethyl)urea] |
| 10.1 | Cc1cc(-c2n[nH]c3cc(NC(=O)NCc4ncc(Cl)cc4F)ncc23)ccn1 [Example 487] |
| 33.7 | Cc1cc(-c2n[nH]c3cc(NC(=O)NCc4nnc(C)s4)ncc23)ccn1 [Example 474] |
| 0.917 | Cc1cc(-c2n[nH]c3cc(NC(=O)N[C@@H]4C[C@H]4c4ccccc4)ncc23)ccn1 [Example 583] |
| 23.8 | Cc1cc(-c2n[nH]c3cc(NC(=O)N[C@H](c4ccccc4)[C@@H]4CCCO4)ncc23)ccn1 [Example 552] |
| 1.41 | Cc1cc(-c2n[nH]c3cc(NC(=O)NC(C)c4cscn4)ncc23)ccn1 (stereo not shown) [Example 496] |
| 5.06 | Cc1cc(-c2n[nH]c3cc(NC(=O)NC4CCCC(Oc5cccc(F)c5)C4)ncc23)ccn1 (stereo not shown) [Example 656] |
| 0.94 | COc1ccc(-c2n[nH]c3cc(NC(=O)N[C@H](C)c4ccccc4)ncc23)cc1 [Example 676] |
| 122 | C[C@@H](NC(=O)Nc1cc2[nH]nc(C(C)(C)O)c2cn1)c1ccccc1 [Example 611] |
| 1.48 | Cc1cc(-c2n[nH]c3cc(NC(=O)N[C@H]4CN(C)[C@H](C(F)F)[C@@H]4c4ccccc4)ncc23)ccn1 [Example 569] |
| 2.43 | Cc1cc(-c2n[nH]c3cc(NC(=O)NC[C@@H]4COCCO4)ncc23)ccn1 [Example 550] |
| 3.12 | COCCNC(=O)Nc1ncc2c(-c3ccnc(C4CC4)c3)n[nH]c2c1F [Example 610] |
| 53.5 | Cc1cc(-c2n[nH]c3cc(NC(=O)NC4c5ccccc5OC(C)(C)C4O)ncc23)ccn1 (stereo not shown) [Example 530] |
| 6.78 | CCOC[C@@H](NC(=O)Nc1cc2[nH]nc(-c3cc(C)on3)c2cn1)c1ccccc1 [Example 698] |
| 0.313 | Cc1cc(-c2n[nH]c3cc(NC(=O)NC(CS(C)(=O)=O)c4ccccc4)ncc23)ccn1 (stereo not shown) [Example 566] |
| 0.587 | Cc1cc(-c2n[nH]c3cc(NC(=O)NCc4ccsn4)ncc23)ccn1 [Example 476] |
| 0.233 | Cc1cc(-c2n[nH]c3cc(NC(=O)N[C@@H]4CN(C)C[C@H]4c4cccc(Cl)c4)ncc23)ccn1 [Example 581] |

The remaining lines, values behind:

| SMILES | IC50 [nM] |
| --- | --- |
| COC(C)CNC(=O)c1n[nH]c2cc(NC(=O)N[C@H](C)c3ccccc3)ncc12 (stereo partly shown) [Example 131] | 13.4 |
| COCC(C)NC(=O)Nc1cc2[nH]nc(-c3ccnc(C)c3)c2cn1 (stereo not shown) [Example 202] | 11.6 |
| CCC(C)C(NC(=O)Nc1cc2[nH]nc(-c3ccnc(C)c3)c2cn1)c1ccc(Cl)cc1 (stereo not shown) [Example 404] | 11.1 |
| Cc1cc(-c2n[nH]c3cc(NC(=O)N[C@H]4CCCC(F)(F)[C@@H]4O)ncc23)ccn1 [Example 383] | 13.3 |
| COC[C@@H](NC(=O)Nc1cc2[nH]nc(-c3ccnc(C#N)c3)c2cn1)c1ccc(F)cc1 [Example 304] | 1.75 |
| CO[C@H]1CN(C)C[C@@H]1NC(=O)Nc1cc2[nH]nc(-c3ccc(F)cc3)c2cn1 [Example 317] | 1.13 |
| Cc1cc(-c2n[nH]c3cc(NC(=O)NCc4ccc(-c5ncc[nH]5)cc4)ncc23)ccn1 [Example 371] | 59 |
| CNC(=O)CNC(=O)Nc1cc2[nH]nc(-c3ccnc(C)c3)c2cn1 [Example 186] | 43.2 |
| Cc1cc(-c2n[nH]c3cc(NC(=O)NC4CCc5ccncc5C4)ncc23)ccn1 (stereo not shown) [Example 400] | 5.42 |
| CC(C)CC(O)CNC(=O)c1n[nH]c2cc(NC(=O)N[C@H](C)c3ccccc3)ncc12 (stereo partly shown) [Example 135] | 14.6 |
| Cc1ccc(C(C)NC(=O)Nc2cc3[nH]nc(-c4ccnc(C)c4)c3cn2)nc1 (stereo not shown) [Example 339] | 6.08 |
| COC[C@@H](NC(=O)Nc1cc2[nH]nc(-c3ccc4c(c3)nnn4C)c2cn1)c1ccc(F)cc1 [Example 301] | 0.562 |
| Cc1cc(-c2n[nH]c3cc(NC(=O)NCCc4ccccn4)ncc23)ccn1 [Example 47, 1-[3-(2-methylpyridin-4-yl)-1H-pyrazolo[4,3-c]pyridin-6-yl]-3-(2-pyridin-2-ylethyl)urea] | 2.34 |
| COC[C@@H](NC(=O)Nc1cc2[nH]nc(-c3ccn4ncnc4c3)c2cn1)c1ccc(F)cc1 [Example 300] | 1.34 |
| C[C@@H](NC(=O)Nc1cc2[nH]nc(-c3cnc(N(C)S(C)(=O)=O)nc3)c2cn1)c1ccccc1 [Example 292] | 3.6 |
| Cc1cc(-c2n[nH]c3cc(NC(=O)N[C@@H](CN)c4ccccc4)ncc23)ccn1 [Example 172] | 243 |
| C[C@@H](NC(=O)Nc1cc2[nH]nc(C(=O)NCc3nc4ccncc4[nH]3)c2cn1)c1ccccc1 [Example 117] | 5.47 |
| Cc1cc(-c2n[nH]c3cc(NC(=O)NCC4CN(C)CCO4)ncc23)ccn1 (stereo not shown) [Example 198] | 5.95 |
| Cc1cc(-c2n[nH]c3cc(NC(=O)N[C@@H](CO)c4cccc5cc[nH]c45)ncc23)ccn1 [Example 363] | 25.9 |
| Cc1cc(-c2n[nH]c3cc(NC(=O)NCc4cc5ccccc5cn4)ncc23)ccn1 [Example 395] | 7.66 |

| SMILES | IC50 [nM] |
| --- | --- |
| Cc1cc(-c2n[nH]c3cc(NC(=O)N[C@@H](C)c4ccccn4)ncc23)ccn1 [Example 345] | 5.37 |
| Cc1cc(-c2n[nH]c3cc(NC(=O)NC(C)c4ccc(S(C)(=O)=O)cc4)ncc23)ccn1 (stereo not shown) [Example 376] | 0.582 |
| Cc1cc(-c2n[nH]c3cc(NC(=O)NC4CCN(S(C)(=O)=O)c5ccccc54)ncc23)ccn1 (stereo not shown) [Example 277] | 1.35 |
| Cc1cc(-c2n[nH]c3cc(NC(=O)NCc4cccc(Cl)c4)ncc23)ccn1 [Example 27, 1-(3-chlorobenzyl)-3-[3-(2-methylpyridin-4-yl)-1H-pyrazolo[4,3-c]pyridin-6-yl]urea] | 0.713 |
| C/C=C/c1n[nH]c2cc(NC(=O)N[C@H](C)c3ccccc3)ncc12 [Example 67, 1-[(1R)-1-phenylethyl]-3-{3-[(1E)-prop-1-en-1-yl]-1H-pyrazolo[4,3-c]pyridin-6-yl}urea] | 0.428 |
| Cc1cc(-c2n[nH]c3cc(NC(=O)NCC4(c5ccc(OC(F)(F)F)cc5)CC4)ncc23)ccn1 [Example 268] | 91.6 |
| Cc1cc(-c2n[nH]c3cc(NC(=O)NCC(O)C(F)(F)F)ncc23)ccn1 (stereo not shown) [Example 195] | 8.06 |
| Cc1cc(-c2n[nH]c3cc(NC(=O)NC(CN)c4ccccc4)ncc23)ccn1 (stereo not shown) [Example 361] | 0.232 |
| CCN(CC)CCC(NC(=O)Nc1cc2[nH]nc(-c3ccnc(C)c3)c2cn1)c1ccccc1 (stereo not shown) [Example 406] | 1.06 |
| C[C@@H](NC(=O)Nc1cc2[nH]nc(C(=O)NCCC3(O)CCCC3)c2cn1)c1ccccc1 [Example 126] | 8.33 |
| O=C(Nc1cc2[nH]nc(C3CC3)c2cn1)NC1CCCOc2ccccc21 (stereo not shown) [Example 153] | 2.28 |
| Cc1cc(-c2n[nH]c3cc(NC(=O)N4CC(c5cccc(F)c5)C4)ncc23)ccn1 [Example 278] | 43.4 |
| Cc1cc(-c2n[nH]c3cc(NC(=O)Nc4noc5ccccc45)ncc23)ccn1 [Example 337] | 1.4 |
| Cc1nc2ccc(-c3n[nH]c4cc(NC(=O)N[C@H](C)c5ccccc5)ncc34)cc2s1 [Example 87, 1-[3-(2-methyl-1,3-benzothiazol-6-yl)-1H-pyrazolo[4,3-c]pyridin-6-yl]-3-[(1R)-1-phenylethyl]urea] | 0.748 |
| Cc1cc(-c2n[nH]c3cc(NC(=O)NCc4cnsc4)ncc23)ccn1 [Example 423] | 0.594 |
| Cc1cc(-c2n[nH]c3cc(NC(=O)NCc4cnc(C)s4)ncc23)ccn1 [Example 434] | 1.14 |
| Cc1cc(-c2n[nH]c3cc(NC(=O)NC(C)CO)ncc23)ccn1 (stereo not shown) [Example 200] | 25.6 |
| Cc1cc(-c2n[nH]c3c(Br)c(NC(=O)N[C@H](C)c4ccc(Cl)cc4)ncc23)ccn1 [Example 86, 1-[7-bromo-3-(2-methylpyridin-4-yl)-1H-pyrazolo[4,3-c]pyridin-6-yl]-3-[(1R)-1-(4-chlorophenyl)ethyl]urea] | 455 |
| Cc1cc(-c2n[nH]c3cc(NC(=O)NC(C)c4ccc(-n5cncn5)cc4)ncc23)ccn1 (stereo not shown) [Example 375] | 12.8 |
| CN1C[C@@H](NC(=O)Nc2cc3[nH]nc(-c4ccc(F)cc4)c3cn2)[C@H](c2ccccc2)C1 [Example 214] | 0.394 |

Same assay, conditions: read-out: AERK2 IC50 (Active human ERK2 Activity Assay)

| IC50 [nM] | SMILES |
| --- | --- |
| 0.2 to 1.7 | Cc1cc(-c2n[nH]c3cc(NC(=O)NCc4cccc(Cl)c4)ncc23)ccn1 [Example 27, 1-(3-chlorobenzyl)-3-[3-(2-methylpyridin-4-yl)-1H-pyrazolo[4,3-c]pyridin-6-yl]urea] |
| 0.2 to 1.7 | C/C=C/c1n[nH]c2cc(NC(=O)N[C@H](C)c3ccccc3)ncc12 [Example 67, 1-[(1R)-1-phenylethyl]-3-{3-[(1E)-prop-1-en-1-yl]-1H-pyrazolo[4,3-c]pyridin-6-yl}urea] |
| 0.2 to 1.7 | Cc1nc2ccc(-c3n[nH]c4cc(NC(=O)N[C@H](C)c5ccccc5)ncc34)cc2s1 [Example 87, 1-[3-(2-methyl-1,3-benzothiazol-6-yl)-1H-pyrazolo[4,3-c]pyridin-6-yl]-3-[(1R)-1-phenylethyl]urea] |

— patent US9023865B2, “Compounds that are ERK inhibitors” (Merck Sharp & Dohme Corp., priority 2011, dated 2015)
